Experimental data from ChEMBL document CHEMBL2062361, “Synthesis and antiproliferative evaluation of some new amidino-substituted bis-benzothiazolyl-pyridines and pyrazine” (Eur J Med Chem, 2012).

Key:
MCF7 = assay: Antiproliferative activity against human MCF7 cells after 72 hrs by MTT assay; assay type: functional, cell-based; details: MCF7, 72 h
SK-BR-3 = assay: Antiproliferative activity against human SK-BR-3 cells after 72 hrs by MTT assay; assay type: functional, cell-based; details: SK-BR-3, 72 h
SW-620 = assay: Antiproliferative activity against human SW620 cells after 72 hrs by MTT assay; assay type: functional, cell-based; details: SW-620, 72 h
MIA PaCa-2 = assay: Antiproliferative activity against human MIAPaCa2 cells after 72 hrs by MTT assay; assay type: functional, cell-based; details: MIA PaCa-2, 72 h
BJ = assay: Antiproliferative activity against human BJ cells after 72 hrs by MTT assay; assay type: cell-based
HeLa = assay: Antiproliferative activity against human HeLa cells after 72 hrs by MTT assay; assay type: functional, cell-based

Row | Structure (SMILES) | IC50 (MCF7) [µM] | IC50 (SK-BR-3) [µM] | IC50 (SW-620) [µM] | IC50 (MIA PaCa-2) [µM] | IC50 (BJ) [µM] | IC50 (HeLa) [µM]
1 | c1cc2nc(-c3cnc(-c4nc5ccc(C6=NCCN6)cc5s4)cn3)sc2cc1C1=NCCN1 | 1.2 | 0.9 | 1.8 | 5.1 | 0.07 | 1.9
2 | c1cc2nc(-c3ccc(-c4nc5ccc(C6=NCCN6)cc5s4)nc3)sc2cc1C1=NCCN1 | 4.4 | 3.4 | 2.8 | 4.4 | 0.34 | 3.4
3 | N=C(N)c1ccc2nc(-c3cncc(-c4nc5ccc(C(=N)N)cc5s4)c3)sc2c1 | > 100 | > 100 | > 100 | 86.7 | 15 | > 100
4 | c1cc2nc(-c3cncc(-c4nc5ccc(C6=NCCN6)cc5s4)c3)sc2cc1C1=NCCN1 | 0.9 | 0.5 | 0.42 | 6.6 | 0.16 | 0.3
5 | N=C(N)c1ccc2nc(-c3ccnc(-c4nc5ccc(C(=N)N)cc5s4)c3)sc2c1 | 78.9 | > 100 | > 100 | 61.1 | 2.92 | > 100
